SMILES strings stand for the structures.

The experiment relates to MV-4-11 cells. The experiment can be described thus: Gene expression microarray analysis (Affymetrix PrimeView) and GSEA. Type of experiment: cell-based, human. Set-up: RFU PODN (11730768_x_at) / Fold change /veh PODN (11730768_x_at) / RFU LINC00158 (11744669_a_at) / Fold change /veh LINC00158 (11744669_a_at) / RFU DUSP10 (11751237_a_at) / Fold change /veh DUSP10 (11751237_a_at) / RFU ID3 (11757404_x_at) / Fold change /veh ID3 (11757404_x_at) / RFU PLEKHG5 (11737974_s_at) / Fold change /veh PLEKHG5 (11737974_s_at) / RFU LRRC4B (11730491_at) / Fold change /veh LRRC4B (11730491_at) / RFU GIMAP4 (11747438_a_at) / Fold change /veh GIMAP4 (11747438_a_at) / RFU KRT8 (11758183_x_at) / Fold change /veh KRT8 (11758183_x_at) / RFU CNN1 (11734310_a_at) / Fold change /veh CNN1 (11734310_a_at) / RFU VPS37D (11726825_at) / Fold change /veh VPS37D (11726825_at) / RFU C10orf10 (11716522_x_at) / Fold change /veh C10orf10 (11716522_x_at) / RFU KIR2DL2 /// KIR2DL4 /// KIR2DL5A /// KIR2DL5B /// KIR2DS1 /// KIR2DS2 /// KIR2DS3 /// KIR2DS4 /// KIR3DL3 /// KIR3DL3 /// KIR3DS1 (11738374_at) / Fold change /veh KIR2DL2 /// KIR2DL4 /// KIR2DL5A /// KIR2DL5B /// KIR2DS1 /// KIR2DS2 /// KIR2DS3 /// KIR2DS4 /// KIR3DL3 /// KIR3DL3 /// KIR3DS1 (11738374_at) / RFU C1QL1 (11718748_at) / Fold change /veh C1QL1 (11718748_at) / RFU TMPRSS4 (11747572_a_at) / Fold change /veh TMPRSS4 (11747572_a_at) / RFU HAMP (11756126_x_at) / Fold change /veh HAMP (11756126_x_at) / RFU RNFT2 (11725882_a_at) / Fold change /veh RNFT2 (11725882_a_at) / RFU NR4A2 (11747474_a_at) / Fold change /veh NR4A2 (11747474_a_at) / RFU ABCC12 (11746883_a_at) / Fold change /veh ABCC12 (11746883_a_at) / RFU TMEM136 (11760407_x_at) / Fold change /veh TMEM136 (11760407_x_at) / RFU CLDN22 /// WWC2 (11732394_at) / Fold change /veh CLDN22 /// WWC2 (11732394_at) / RFU HLA-DPB1 (11760878_x_at) / Fold change /veh HLA-DPB1 (11760878_x_at) / RFU SPINT1 (11716480_a_at) / Fold change /veh SPINT1 (11716480_a_at) / RFU GAP43 (11754022_s_at) / Fold change /veh GAP43 (11754022_s_at) / RFU A4GNT (11735810_at) / Fold change /veh A4GNT (11735810_at) / RFU PRB3 (11715151_x_at) / Fold change /veh PRB3 (11715151_x_at) / RFU TUBB4B (11761932_at) / Fold change /veh TUBB4B (11761932_at) / RFU CAPN14 (11732068_a_at) / Fold change /veh CAPN14 (11732068_a_at) / RFU TMCC2 (11721928_a_at) / Fold change /veh TMCC2 (11721928_a_at) / RFU IRGQ (11745062_a_at) / Fold change /veh IRGQ (11745062_a_at) / RFU FAM174B (11720279_a_at) / Fold change /veh FAM174B (11720279_a_at) / RFU TMPRSS4 (11748680_a_at) / Fold change /veh TMPRSS4 (11748680_a_at) / RFU FAM212B (11763350_a_at) / Fold change /veh FAM212B (11763350_a_at) / RFU PLEKHG5 (11743358_a_at) / Fold change /veh PLEKHG5 (11743358_a_at) / RFU ZSCAN30 (11745921_a_at) / Fold change /veh ZSCAN30 (11745921_a_at) / RFU CMKLR1 (11741424_a_at) / Fold change /veh CMKLR1 (11741424_a_at) / RFU LOC101060620 /// MAPK8IP1 (11723275_at) / Fold change /veh LOC101060620 /// MAPK8IP1 (11723275_at) / RFU SPTSSB (11747773_x_at) / Fold change /veh SPTSSB (11747773_x_at) / RFU PRSS12 (11739890_at) / Fold change /veh PRSS12 (11739890_at) / RFU BIN1 (11741810_x_at) / Fold change /veh BIN1 (11741810_x_at) / RFU WNT11 (11732464_a_at) / Fold change /veh WNT11 (11732464_a_at) / RFU C10orf10 (11716521_a_at) / Fold change /veh C10orf10 (11716521_a_at) / RFU C5orf56 (11738089_at) / Fold change /veh C5orf56 (11738089_at) / RFU CYB561 (11721691_x_at) / Fold change /veh CYB561 (11721691_x_at) / RFU ANKRD19P (11752326_a_at) / Fold change /veh ANKRD19P (11752326_a_at) / RFU OR2T12 /// OR2T33 /// OR2T8 (11738714_s_at) / Fold change /veh OR2T12 /// OR2T33 /// OR2T8 (11738714_s_at) / RFU VCAN (11748164_a_at) / Fold change /veh VCAN (11748164_a_at) / RFU JSRP1 (11732532_at) / Fold change /veh JSRP1 (11732532_at) / RFU KRTAP10-11 (11738290_x_at) / Fold change /veh KRTAP10-11 (11738290_x_at) / RFU MYO3A (11730013_a_at) / Fold change /veh MYO3A (11730013_a_at) / RFU EBF3 (11725865_a_at) / Fold change /veh EBF3 (11725865_a_at) / RFU CAMK2N1 (11719241_x_at) / Fold change /veh CAMK2N1 (11719241_x_at) / RFU C5orf56 (11738088_a_at) / Fold change /veh C5orf56 (11738088_a_at) / RFU OLFML3 (11715873_a_at) / Fold change /veh OLFML3 (11715873_a_at) / RFU LOC100653217 /// NTM (11731650_a_at) / Fold change /veh LOC100653217 /// NTM (11731650_a_at) / RFU MAPK11 (11762145_a_at) / Fold change /veh MAPK11 (11762145_a_at) / RFU FIZ1 (11724087_x_at) / Fold change /veh FIZ1 (11724087_x_at) / RFU OASL (11726364_x_at) / Fold change /veh OASL (11726364_x_at) / RFU SOX15 (11748057_x_at) / Fold change /veh SOX15 (11748057_x_at) / RFU CD79A (11719716_a_at) / Fold change /veh CD79A (11719716_a_at) / RFU HIST1H1D (11736915_at) / Fold change /veh HIST1H1D (11736915_at) / RFU CASKIN2 (11723855_a_at) / Fold change /veh CASKIN2 (11723855_a_at) / RFU LOC730098 (11760151_x_at) / Fold change /veh LOC730098 (11760151_x_at) / RFU OR4N2 (11742367_at) / Fold change /veh OR4N2 (11742367_at) / RFU PRRT2 (11749266_a_at) / Fold change /veh PRRT2 (11749266_a_at) / RFU SNX32 (11753110_a_at) / Fold change /veh SNX32 (11753110_a_at) / RFU CDHR5 (11726645_a_at) / Fold change /veh CDHR5 (11726645_a_at) / RFU RCAN1 (11760418_a_at) / Fold change /veh RCAN1 (11760418_a_at) / RFU FAM167A (11723789_a_at) / Fold change /veh FAM167A (11723789_a_at) / RFU FAM26E (11764081_at) / Fold change /veh FAM26E (11764081_at) / RFU ISYNA1 (11749810_s_at) / Fold change /veh ISYNA1 (11749810_s_at) / RFU ACY1 (11761880_at) / Fold change /veh ACY1 (11761880_at) / RFU 11764098_at / Fold change /veh 11764098_at / RFU SAMD14 (11745864_x_at) / Fold change /veh SAMD14 (11745864_x_at) / RFU NPB (11741838_a_at) / Fold change /veh NPB (11741838_a_at) / RFU TMPRSS6 (11731388_a_at) / Fold change /veh TMPRSS6 (11731388_a_at) / RFU KRTAP10-2 (11738614_at) / Fold change /veh KRTAP10-2 (11738614_at) / RFU ARHGAP8 /// PRR5-ARHGAP8 (11727945_x_at) / Fold change /veh ARHGAP8 /// PRR5-ARHGAP8 (11727945_x_at) / RFU KRTAP5-7 /// NADSYN1 (11734609_at) / Fold change /veh KRTAP5-7 /// NADSYN1 (11734609_at) / RFU RASL12 (11751679_a_at) / Fold change /veh RASL12 (11751679_a_at) / RFU CDKN2B (11736163_a_at) / Fold change /veh CDKN2B (11736163_a_at) / RFU PRF1 (11729649_at) / Fold change /veh PRF1 (11729649_at) / RFU, ZNF638 /// ZNF638-IT1 / Fold change vs veh, ZNF638 /// ZNF638-IT1 / RFU, PANK3 / Fold change vs veh, PANK3 / RFU, SH3YL1 / Fold change vs veh, SH3YL1 / RFU, ZEB2 / Fold change vs veh, ZEB2 / RFU, NRIP1 / Fold change vs veh, NRIP1 / RFU, PTTG1IP / Fold change vs veh, PTTG1IP / RFU, CAPN2 / Fold change vs veh, CAPN2 / RFU, MED14 / Fold change vs veh, MED14 / RFU, SNORA58 / Fold change vs veh, SNORA58 / RFU, C1orf63 / Fold change vs veh, C1orf63 / RFU, LRRFIP1 / Fold change vs veh, LRRFIP1 / RFU, NDUFAF7 / Fold change vs veh, NDUFAF7 / RFU, SLC12A2 / Fold change vs veh, SLC12A2 / RFU, IBTK / Fold change vs veh, IBTK / RFU, ESF1 / Fold change vs veh, ESF1 / Fold change vs veh, TMEM50B / RFU, TAOK1 / Fold change vs veh, TAOK1 / RFU, ACBD3 / Fold change vs veh, ACBD3 / RFU, TMA16 / Fold change vs veh, TMA16 / RFU, RWDD3 / Fold change vs veh, RWDD3 / RFU, BCAT1 / Fold change vs veh, BCAT1 / RFU, EDEM3 / Fold change vs veh, EDEM3 / RFU, TMEM33 / Fold change vs veh, TMEM33 / RFU, WDR75 / Fold change vs veh, WDR75 / RFU, AHCTF1 / Fold change vs veh, AHCTF1 / RFU, TFRC / Fold change vs veh, TFRC / RFU, ZDHHC17 / Fold change vs veh, ZDHHC17 / RFU, NOM1 / Fold change vs veh, NOM1 / RFU, ARL8B / Fold change vs veh, ARL8B / RFU, ZBTB11 / Fold change vs veh, ZBTB11 / RFU, TAMM41 / Fold change vs veh, TAMM41 / RFU, KIAA1704 /// LOC100996395 / Fold change vs veh, KIAA1704 /// LOC100996395 / RFU, ING1 / Fold change vs veh, ING1 / RFU, TRMT61B / Fold change vs veh, TRMT61B / RFU, FUBP3 / Fold change vs veh, FUBP3 / RFU, TP53 / Fold change vs veh, TP53 / RFU, TNKS2 / Fold change vs veh, TNKS2 / RFU, ZFP14 / Fold change vs veh, ZFP14 / RFU, ACTR2 / Fold change vs veh, ACTR2 / RFU, PPP3R1 / Fold change vs veh, PPP3R1 / RFU, PIK3R1 / Fold change vs veh, PIK3R1 / RFU, HNRNPA1 / Fold change vs veh, HNRNPA1 / RFU, RNF170 / Fold change vs veh, RNF170 / RFU, ZNF28 / Fold change vs veh, ZNF28 / RFU, RNGTT / Fold change vs veh, RNGTT / RFU, OGT / Fold change vs veh, OGT / RFU, BRD1 / Fold change vs veh, BRD1 / RFU, MARS / Fold change vs veh, MARS / RFU, ZNF655 / Fold change vs veh, ZNF655 / RFU, FAHD1 / Fold change vs veh, FAHD1 / RFU, BDP1 / Fold change vs veh, BDP1 / RFU, LRRCC1 / Fold change vs veh, LRRCC1 / RFU, ARID1A / Fold change vs veh, ARID1A / RFU, ZNF146 / Fold change vs veh, ZNF146 / RFU, ZNF330 / Fold change vs veh, ZNF330 / RFU, GPN3 / Fold change vs veh, GPN3 / RFU, C9orf123 / Fold change vs veh, C9orf123 / RFU, N4BP2L2 / Fold change vs veh, N4BP2L2 / RFU, ARFIP1 / Fold change vs veh, ARFIP1 / RFU, FAM179B / Fold change vs veh, FAM179B / RFU, BCL10 / Fold change vs veh, BCL10 / RFU, UHRF1BP1L / Fold change vs veh, UHRF1BP1L / RFU, BET1 / Fold change vs veh, BET1 / RFU, CNOT2 / Fold change vs veh, CNOT2 / RFU, ZNF268 / Fold change vs veh, ZNF268 / Fold change vs veh, ZNF507 / RFU, DGCR2 / Fold change vs veh, DGCR2 / RFU, WDSUB1 / Fold change vs veh, WDSUB1 / Fold change vs veh, HSP90B1 /// MIR3652 / RFU, ADSS / Fold change vs veh, ADSS / RFU, GK / Fold change vs veh, GK / RFU, ZNF148 / Fold change vs veh, ZNF148 / RFU, TAF9 / Fold change vs veh, TAF9 / RFU, SLC1A5 / Fold change vs veh, SLC1A5 / RFU, SLMO2 / Fold change vs veh, SLMO2 / RFU, ABCC4 / Fold change vs veh, ABCC4 / RFU, LOC101060439 /// RAP1B / Fold change vs veh, LOC101060439 /// RAP1B / RFU, RFX7 / Fold change vs veh, RFX7 / RFU, GTPBP10 / Fold change vs veh, GTPBP10 / RFU, CNEP1R1 / Fold change vs veh, CNEP1R1 / RFU, BIVM-ERCC5 /// ERCC5 / Fold change vs veh, BIVM-ERCC5 /// ERCC5 / RFU, ILF3 / Fold change vs veh, ILF3 / RFU 11762660_at / Fold change /veh 11762660_at / RFU VCAN (11757783_s_at) / Fold change /veh VCAN (11757783_s_at) / RFU DDX43 (11728927_at) / Fold change /veh DDX43 (11728927_at) / RFU KRT8 (11758188_x_at) / Fold change /veh KRT8 (11758188_x_at) / RFU NKD1 (11759106_at) / Fold change /veh NKD1 (11759106_at) / RFU SRD5A1 (11742802_a_at) / Fold change /veh SRD5A1 (11742802_a_at) / RFU TPSAB1 /// TPSB2 (11721975_s_at) / Fold change /veh TPSAB1 /// TPSB2 (11721975_s_at) / RFU GSTM3 (11746129_a_at) / Fold change /veh GSTM3 (11746129_a_at) / RFU IL23R (11737362_x_at) / Fold change /veh IL23R (11737362_x_at) / RFU TMEM51 (11727254_a_at) / Fold change /veh TMEM51 (11727254_a_at) / RFU PIWIL2 (11732686_x_at) / Fold change /veh PIWIL2 (11732686_x_at) / RFU ORM1 (11744905_x_at) / Fold change /veh ORM1 (11744905_x_at) / RFU CCDC152 (11743942_at) / Fold change /veh CCDC152 (11743942_at) / RFU ECM1 (11717891_a_at) / Fold change /veh ECM1 (11717891_a_at) / RFU IL23R (11748794_a_at) / Fold change /veh IL23R (11748794_a_at) / RFU TNFAIP8L3 (11732012_x_at) / Fold change /veh TNFAIP8L3 (11732012_x_at) / RFU MBOAT4 (11741988_at) / Fold change /veh MBOAT4 (11741988_at) / RFU 11764193_at / Fold change /veh 11764193_at / RFU TMEM53 (11763286_at) / Fold change /veh TMEM53 (11763286_at) / RFU MAGEB2 (11727129_at) / Fold change /veh MAGEB2 (11727129_at) / RFU TMEM200A (11744735_a_at) / Fold change /veh TMEM200A (11744735_a_at) / RFU CCDC152 (11751479_a_at) / Fold change /veh CCDC152 (11751479_a_at) / RFU FAM211A (11726209_a_at) / Fold change /veh FAM211A (11726209_a_at) / RFU RGS16 (11746705_a_at) / Fold change /veh RGS16 (11746705_a_at) / RFU VCAN (11755009_s_at) / Fold change /veh VCAN (11755009_s_at) / RFU RHOB (11743442_s_at) / Fold change /veh RHOB (11743442_s_at) / RFU RGS16 (11720943_a_at) / Fold change /veh RGS16 (11720943_a_at) / RFU RGS16 (11720944_at) / Fold change /veh RGS16 (11720944_at) / RFU, VPS4B / Fold change vs veh, VPS4B / RFU, CREB1 / Fold change vs veh, CREB1 / RFU, DNAJC13 / Fold change vs veh, DNAJC13 / RFU, GNAQ / Fold change vs veh, GNAQ / RFU, CDK5R1 / Fold change vs veh, CDK5R1 / RFU, ZRANB3 / Fold change vs veh, ZRANB3 / RFU, CUL4A / Fold change vs veh, CUL4A / RFU, CCNY / Fold change vs veh, CCNY / RFU, UFL1 / Fold change vs veh, UFL1 / RFU, COG3 / Fold change vs veh, COG3 / RFU, DIAPH2 / Fold change vs veh, DIAPH2 / RFU, SKA2 / Fold change vs veh, SKA2 / RFU, AFF3 / Fold change vs veh, AFF3 / RFU, LMF1 / Fold change vs veh, LMF1 / RFU, IPO11 / Fold change vs veh, IPO11 / RFU, DFFB / Fold change vs veh, DFFB / RFU, FOXP1 / Fold change vs veh, FOXP1 / RFU, CARD8 / Fold change vs veh, CARD8 / RFU, STRN3 / Fold change vs veh, STRN3 / RFU, ADK / Fold change vs veh, ADK / RFU, RASSF2 / Fold change vs veh, RASSF2 / RFU, WIPF1 / Fold change vs veh, WIPF1 / RFU, LARP1B / Fold change vs veh, LARP1B / RFU, RASA1 / Fold change vs veh, RASA1 / RFU, RB1 / Fold change vs veh, RB1 / RFU, PPFIA1 / Fold change vs veh, PPFIA1 / RFU, MAT2A / Fold change vs veh, MAT2A / RFU, CCT5 / Fold change vs veh, CCT5 / RFU, WDR92 / Fold change vs veh, WDR92 / RFU, CUX1 / Fold change vs veh, CUX1 / RFU, TTC7A / Fold change vs veh, TTC7A / RFU, TMEM135 / Fold change vs veh, TMEM135 / RFU, DEPTOR / Fold change vs veh, DEPTOR / RFU, CPM / Fold change vs veh, CPM / RFU, DNAJB6 / Fold change vs veh, DNAJB6 / RFU, CACNA2D3 / Fold change vs veh, CACNA2D3 / RFU, DTX4 / Fold change vs veh, DTX4 / RFU, TFCP2 / Fold change vs veh, TFCP2 / RFU, GMCL1 /// GMCL1P1 / Fold change vs veh, GMCL1 /// GMCL1P1 / RFU, AEBP2 / Fold change vs veh, AEBP2 / RFU, SNHG1 /// SNORD22 /// SNORD25 /// SNORD26 /// SNORD27 /// SNORD28 /// SNORD29 /// SNORD31 / Fold change vs veh, SNHG1 /// SNORD22 /// SNORD25 /// SNORD26 /// SNORD27 /// SNORD28 /// SNORD29 /// SNORD31 / Fold change (Aza/veh), C12orf56 (ProbeSet 11735607_a_at) / Fold change (ACY-1035/veh), C12orf56 (ProbeSet 11735607_a_at) / Fold change (Aza/veh), FGFR1OP (ProbeSet 11751329_s_at) / Fold change (ACY-1035/veh), FGFR1OP (ProbeSet 11751329_s_at) / Fold change (Aza/veh), VPS36 (ProbeSet 11739960_a_at) / Fold change (ACY-1035/veh), VPS36 (ProbeSet 11739960_a_at) / RFU SYPL1 (11715823_x_at) / Fold change /veh SYPL1 (11715823_x_at) / RFU IGFBP7 (11715501_s_at) / Fold change /veh IGFBP7 (11715501_s_at) / RFU REEP3 (11722064_at) / Fold change /veh REEP3 (11722064_at) / RFU IGLL1 (11728026_x_at) / Fold change /veh IGLL1 (11728026_x_at): dose or concentration left out as unconfirmed. The following applies: MV-4-11 cells, 48 hours.

For the molecule `Nc1ncn([C@@H]2O[C@H](CO)[C@@H](O)[C@H]2O)c(=O)n1` [azacitidine], the “RFU PIWIL2 (11732686_x_at)” value is 15.01 RFU.
